Measurements from US10023591B2, “Heterocyclic derivatives and use thereof” (C&C RESEARCH LABORATORIES, priority 2014, dated 2018).

Tests used:
[1] = tested on: STAT3; experiment: STAT3 reporter gene assay (luciferase), LNCaP stable cell line pSTAT3-TA-luc, IL-6 stimulation; format: cell-based, human; conditions: Homo sapiens
Summary of the method: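 LNCaP cells stably carrying pSTAT3-TA-luc were plated 24 h in 3% DCC-FBS medium, then given compound followed by IL-6 (10 ng/mL final) for 24 h at 37 °C. Luciferase was read from lysates, with CellTiter-Glo viability on a duplicate plate. Stimulated 0.1% DMSO wells served as uninhibited control.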

[2] = tested on: NCI-N87 stomach cancer cell line; experiment: Cell growth inhibition assay, NCI-N87 (CellTiter-Glo); format: cell-based; conditions: Homo sapiens; NCI-N87, 5,000 cells/well, 96 hours
Experimental: The inhibitory effects of the compounds of the present invention against the growth of cancer cells were evaluated as shown below. The cancer cell lines including prostate cancer cell lines (LNCaP, DU-145), stomach cancer cell line (NCI-N87), and breast cancer cell lines (MDA-MB-468) were cultured under the protocol provided by each supplier. A medium supplemented with 10 ng/mL of IL-6 was used for LNCaP, a prostate cancer cell line, when treated with a drug. Each type of cells to be used in experiments was sub-cultured in a 96-well plate by counting the exact number of cells using Tali™ Image-based Cytometer (Life Technologies). In a 96-well plate, DU-145 was employed with 3,000 cells/well; NCI-N87 was employed with 5,000 cells/well; and LNCaP and MDA-MB-468 were employed with 10,000 cells/well. The cells were treated with the compounds listed in Examples which were diluted in various concentrations. Upon completion of the compounds treatment, LNCaP, DU-145, NCI-N87 cells were cultured at 37° C. under 5% CO2 for 96 hours, and MDA-MB-468 cells were cultured at 37° C. in air for 96 hours. Subsequently, the cells were observed under microscope and drug precipitation and particular findings were investigated and recorded. And then, the 96-well plate was placed at room temperature for 30 minutes, added with 20 pt/well of CellTiter-Glo solution (Cat No. G7573, Promega) and shaken for 10 minutes, followed by being subjected to the measurement using PHERAstar™ microplate reader (BMG LABTECH) according to the supplier's general luminometer protocol. Wells where only culture liquid added without cell plating were used as a negative control, whereas wells where culture liquid containing 0.1% DMSO instead of the compounds listed in Examples were used as a positive control.

[3] = tested on: STAT1; experiment: STAT1 reporter gene assay (luciferase), U2OS stable cell line pGL4-STAT1-TA-luc, IFN-γ stimulation; format: cell-based, human; conditions: Homo sapiens, IFN-γ 50 ng/mL, 8 hours, read-out: IC50 (μM) pSTAT1
Summary of the method: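 U2OS cells stably carrying a STAT1-driven luciferase reporter were treated with serially diluted compounds plus IFN-γ (50 ng/mL final) for 8 h at 37 °C in 10% FBS medium. Luciferase read after lysis; parallel plate assessed for cytotoxicity by CellTiter-Glo.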

Row | IC50 [1] [µM] | IC50 [2] [µM] | IC50 [3] [µM] | SMILES
1 | 0.0093 | 0.068 | > 50 | CC(C)(c1ccc2sc(C(=O)Nc3cc(Cl)nc(OC4CC=C(Cl)CC4)c3)cc2c1)S(C)(=O)=O (stereo not drawn) [Example 101, N-(2-chloro-6-((4-chlorocyclohex-3-en-1-yl)oxy)pyridin-4-yl)-5-(2-(methylsulfonyl)propan-2-yl)benzo[b]thiophene-2-carboxamide]
2 | 0.18 | 1.3 | > 50 | CC(C)(c1ccc2sc(C(=N)Nc3cc(Cl)cc(Oc4ccc(Cl)cc4)c3)cc2c1)S(C)(=O)=O [Example 103, N-(3-chloro-5-(4-chlorophenoxy)phenyl)-5-(2-(methylsulfonyl)propan-2-yl)benzo[b]thiophene-2-carboximidamide 2,2,2-trifluoroacetate]
3 | 1.4 | 1.7 | 8.7 | CC(C)(c1ccc2sc(C(=O)Nc3cc(Cl)nc(N4CCN5CCCC5C4)c3)cc2c1)S(C)(=O)=O (stereo not drawn) [Example 104, N-(2-chloro-6-(hexahydropyrrolo[1,2-a]pyrazin-2(1H)-yl)pyridin-4-yl)-5-(2-(methylsulfonyl)propan-2-yl)benzo[b]thiophene-2-carboxamide]
4 | 0.049 | 0.087 | > 50 | CC(C)(C)C1CCN(c2cc(NC(=O)c3cc4cc(C(C)(C)S(C)(=O)=O)ccc4s3)cc(Cl)n2)CC1 [Example 105, N-(2-(4-(tert-butyl)piperidin-1-yl)-6-chloropyridin-4-yl)-5-(2-(methylsulfonyl)propan-2-yl)benzo[b]thiophene-2-carboxamide]
5 | 0.43 | 1.8 | 8.5 | CC(C)(c1ccc2sc(C(=O)Nc3cc(Cl)nc(N4CCN5CCCCC5C4)c3)cc2c1)S(C)(=O)=O (stereo not drawn) [Example 106, N-(2-chloro-6-(octahydro-2H-pyrido[1,2-a]pyrazin-2-yl)pyridin-4-yl)-5-(2-(methylsulfonyl)propan-2-yl)benzo[b]thiophene-2-carboxamide]
6 | > 10 | 5.5 | 33.5 | CCN1CCC2(CCN(c3cc(NC(=O)c4cc5cc(C(C)(C)S(C)(=O)=O)ccc5s4)cc(Cl)n3)C2)C1 (stereo not drawn) [Example 107, N-(2-chloro-6-(7-ethyl-2,7-diazaspiro[4.4]nonan-2-yl)pyridin-4-yl)-5-(2-(methylsulfonyl)propan-2-yl)benzo[b]thiophene-2-carboxamide]
7 | 0.085 | 0.13 | > 50 | CC(C)(c1ccc2sc(C(=O)Nc3cc(Cl)nc(N4CCC5CCCCC5C4)c3)cc2c1)S(C)(=O)=O (stereo not drawn) [Example 108, N-(2-chloro-6-(octahydroisoquinolin-2(1H)-yl)pyridin-4-yl)-5-(2-(methylsulfonyl)propan-2-yl)benzo[b]thiophene-2-carboxamide]
8 | 0.53 | 1.2 | 44.8 | Cn1nccc1Oc1cc(NC(=O)c2cc3cc(C(C)(C)S(C)(=O)=O)ccc3s2)cc(Cl)n1 [Example 110, N-(2-chloro-6-((1-methyl-1H-pyrazol-5-yl)oxy)pyridin-4-yl)-5-(2-(methylsulfonyl)propan-2-yl)benzo[b]thiophene-2-carboxamide]
9 | 1.3 | 2.4 | > 50 | Cc1nn(C)c(C)c1Oc1cc(NC(=O)c2cc3cc(C(C)(C)S(C)(=O)=O)ccc3s2)cc(Cl)n1 [Example 111, N-(2-chloro-6-((1,3,5-trimethyl-1H-pyrazol-4-yl)oxy)pyridin-4-yl)-5-(2-(methylsulfonyl)propan-2-yl)benzo[b]thiophene-2-carboxamide]
10 | 0.32 | 1 | 18.9 | Cn1cc(Oc2cc(NC(=O)c3cc4cc(C(C)(C)S(C)(=O)=O)ccc4s3)cc(Cl)n2)cn1 [Example 112, N-(2-chloro-6-((1-methyl-1H-pyrazol-4-yl)oxy)pyridin-4-yl)-5-(2-(methylsulfonyl)propan-2-yl)benzo[b]thiophene-2-carboxamide]
